Test system: A549 cells
Experiment: confocal microscopy of ceramide and caspase 8
Format: cell-based, human
Conditions: 300 nM, 30 minutes after treatment
Protocol: Confocal microscopy. […] After treatment, the cells were fixed 10 minutes at room temperature with 4% PFA, washed twice with PBS, permeabilized 2 minutes at room temperature with 0.1% triton in PBS and blocked for 30 minutes with sterile 2% BSA in PBS. The staining was performed at room temperature for 2 hours (h), with mouse monoclonal anti-human ceramide (Alexis) and rabbit anti-human caspase 8 (BD Pharmingen) antibodies followed by secondary goat anti-mouse ALEXA FLUOR568™ and goat anti-rabbit ALEXA FLUOR488™ antibodies (Invitrogen). The blue DNA binding dye TOPRO-3™ (Molecular Probes) was added together with the secondary antibodies. The cells were washed three times with PBS between the different incubation steps and the incubation with the secondary fluorescently labeled antibodies was performed in the dark. All antibodies were diluted in PBS. Confocal images were recorded on a Nikon ECLIPSE C1™ confocal microscope.

## CCCCC/C=C\C/C=C\C/C=C\C/C=C\CCCC(=O)O [arachidonic acid, reference compound]
  cell surface ceramide: absent

Source: patent publication US9045401B2, “Methods for treating or ameliorating a melanoma and killing melanoma cells” (THE REGENTS OF THE UNIVERSITY OF CALIFORNIA, priority 2007, dated 2015)
